In paper PMC8329713, “The identification and structural analysis of potential 14-3-3 interaction sites on the bone regulator protein Schnurri-3” (Acta Crystallographica. Section F, Structural Biology …, 2021):
Non-standard residues stand in square brackets, D forms with d. No end group written: not given here. pS = N[C@@H](COP(=O)(O)O)C(=O)O

How the values were obtained:
14-3-3σ [1] = target: T1, 14-3-3σ (Homo sapiens, UniProt P31947); assay: Isothermal titration calorimetry (ITC) under reducing conditions, 14-3-3σ; type: binding; settings: FITC-labelled peptide titrated into 14-3-3σ, 18 injections of 2 µl, 25°C, 50 mM Tris pH 7.5, 150 mM NaCl, 5 mM MgCl2, 2 mM 2-mercaptoethanol, 0.05%(v/v) Tween-20
T1 construct: The full-length 14-3-3 isoforms were used in biophysical assays; His6 (cleaved yes); made in house; host or cells: Escherichia coli NiCo21(DE3)
T1 sequence (P31947 1-248): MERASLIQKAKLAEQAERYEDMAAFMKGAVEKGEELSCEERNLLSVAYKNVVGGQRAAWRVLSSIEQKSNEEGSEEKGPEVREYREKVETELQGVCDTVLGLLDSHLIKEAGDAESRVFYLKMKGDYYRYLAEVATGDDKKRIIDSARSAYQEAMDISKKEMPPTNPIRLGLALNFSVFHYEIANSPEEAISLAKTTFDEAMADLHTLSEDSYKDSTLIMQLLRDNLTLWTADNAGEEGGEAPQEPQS
Experimental: (§1) 14-3-3 isoforms γ, τ, σ, ɛ, η, ζ, β (full length) and 14-3-3σΔC (residues 231–248 deleted) were expressed with a His6 tag in Escherichia coli NiCo21(DE3) competent cells from a pPRoeX-Htb vector in 2×TY medium. Purification was carried out by affinity chromatography on nickel columns (HisTrap HP, 5 ml). The tags were cleaved with TEV protease. The proteins were then loaded again onto nickel columns to remove any noncleaved protein. A final purification step was performed by loading the proteins onto a size-exclusion chromatography column (HiLoad 26/600 Superdex 75 pg) equilibrated in 20 mM Tris–HCl pH 7.5, 150 mM NaCl, 2 mM DTT. All purification steps were performed on an ÄKTApure protein-purification system (Cytiva). The full-length 14-3-3 isoforms were used in biophysical assays and the 14-3-3σΔC construct was used for crystallographic purposes. […]
(§2) Fluorescence polarization (FP) binding assays were carried out in Corning 384-well 3575 plates, serially diluting (twofold) the 14-3-3 isoforms in the presence of 10 nM FITC-labelled peptides. […] The data were collected on a PHERAstar FSX plate reader (BMG Labtech) with an excitation wavelength of 485 nm and an emisson wavelength of 520 nm. […] The data were analysed using the MicroCal PEAQ-ITC Analysis Software (Malvern).

14-3-3σ [2] = target: T1, 14-3-3σ; assay: X-ray protein crystallography with 14-3-3σΔC; settings: crystal structures with 14-3-3σΔC, PDB 7b13 (SHN3pS542) and 7b15 (SHN3pT869)
Experimental: 14-3-3 isoforms γ, τ, σ, ɛ, η, ζ, β (full length) and 14-3-3σΔC (residues 231–248 deleted) were expressed with a His6 tag in Escherichia coli NiCo21(DE3) competent cells from a pPRoeX-Htb vector in 2×TY medium. Purification was carried out by affinity chromatography on nickel columns (HisTrap HP, 5 ml). The tags were cleaved with TEV protease. The proteins were then loaded again onto nickel columns to remove any noncleaved protein. A final purification step was performed by loading the proteins onto a size-exclusion chromatography column (HiLoad 26/600 Superdex 75 pg) equilibrated in 20 mM Tris–HCl pH 7.5, 150 mM NaCl, 2 mM DTT. All purification steps were performed on an ÄKTApure protein-purification system (Cytiva). The full-length 14-3-3 isoforms were used in biophysical assays and the 14-3-3σΔC construct was used for crystallographic purposes.
The peptides SHN3pS542 (LLRSHpS542MPSAAC) and SHN3pT869 (PDRPDpT869EPEPPP) were ordered with a purity of >95% from GenScript in an N-terminally acetylated version and an N-terminally FITC-Ahx-labelled version.
For protein crystallization, a C-terminally truncated version of 14-3-3σ was used (14-3-3σΔC; deletion of the 17 C-terminal amino acids; Schumacher et al., 2010[▸]). […]

14-3-3 isoforms = assay: Fluorescence polarization (FP) binding assay, all 14-3-3 isoforms taken together; set-up: species or system human; settings: FITC-labelled peptide 10 nM, only a modest FP signal at the highest concentrations, not possible to calculate Kd values
Experimental: as §1, §2

14-3-3γ (full length) = target: T2, 14-3-3γ (full length) (human, UniProt P61981 1-247); assay: ITC; peptide titrated into the cell containing the 14-3-3 protein, 18 injections of 2 µl, 25°C; 50 mM Tris pH 7.5, 150 mM NaCl, 5 mM MgCl2, 2 mM 2-mercaptoethanol, 0.05% Tween-20 (reducing conditions); settings: both partners purified
T2 construct: 14-3-3 protein gamma, human, full length; Expressed from a pPRoeX-Htb vector; also called 14-3-3 isoform γ; source: E. coli NiCo21(DE3), purified (nickel column, TEV cleavage, second nickel column, SEC)
T2 sequence (looked up): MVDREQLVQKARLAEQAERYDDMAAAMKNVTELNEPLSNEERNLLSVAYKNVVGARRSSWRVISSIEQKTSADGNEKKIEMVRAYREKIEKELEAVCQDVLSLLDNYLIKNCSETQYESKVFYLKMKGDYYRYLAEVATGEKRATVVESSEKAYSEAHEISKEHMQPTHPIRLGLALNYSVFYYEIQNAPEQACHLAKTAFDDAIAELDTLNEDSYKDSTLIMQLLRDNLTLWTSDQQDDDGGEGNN

14-3-3σ (full length) = target: T3, 14-3-3σ (full length) (human, UniProt P31947 1-248); assay: as above; settings: both partners purified
T3 construct: 14-3-3 protein sigma, human, full length; Expressed from a pPRoeX-Htb vector; also called 14-3-3 isoform σ; the σ isoform; source: E. coli NiCo21(DE3), purified (nickel column, TEV cleavage, second nickel column, SEC)
T3 sequence (looked up): T1 sequence (P31947 1-248)

LLRSHpS542MPSAAC [SHN3pS542-FITC, N-terminally FITC-Ahx-labelled version of SHN3pS542, as used in the FP assay]
Kd (14-3-3σ [1]): 4.8 ± 0.8 µM

PDRPDpT869EPEPPP [SHN3pT869, synthetic phosphopeptide PDRPDpT869EPEPPP derived from human Schnurri-3 (SHN3)]
polar contacts with 14-3-3σ residues (14-3-3σ [2]): Polar contacts are established between Glu872 and Glu870 of SHN3pT869 and Asn50, Lys122, Lys49 and Asn175 on the C-terminal side of the peptide and between Asp868 and Pro867 of SHN3pT869 and Asn226 on the N-terminal side of the peptide | binding to 14-3-3 isoforms (in words) (14-3-3 isoforms): very weak 14-3-3 binder

B1: SHN3pS542 peptide, N-terminally acetylated (peptide)
peptide: Ac-LLRSH[pS]MPSAAC
modifications: also: phosphoserine at 542, position not mapped
notes: Schnurri-3 (SHN3, transcription factor HIVEP3), human, 12-mer around phosphorylated Ser542; also called the acetylated peptide; source: synthetic peptide, bought: GenScript (purity >95%)
Kd (14-3-3γ (full length)): 0.69 ± 0.15 µM | Kd (14-3-3σ (full length)): 5.8 ± 1.3 µM
